In one data set the test system is HIF-2α. Kind of data set: Expression of HIF-2α in mouse knee joint chondrocytes (RT-PCR, qRT-PCR, western blot). Format: cell-based. Conditions: for expression of HIF-2α transcripts and proteins: signal pathway inhibitor in chondrocytes; for expression of HIF-2α: mouse knee joint chondrocytes treated with the cytokine. The procedure: In order to induce pathological condition of cartilage degeneration in knee joint chondrocytes of mouse (Charles River, Japan), the cells were treated with interleukin 1β (IL-1β, Calbiochem, USA), IL-17 (R&D Systems, USA), TNF-α (R&D Systems, USA) or IL-21 (R&D Systems, USA), which are known as proinflammatory cytokines. The expression level of HIF-2α was investigated by RT-PCR, qRT-PCR and western blot. The mouse knee joint chondrocytes were isolated from the knee joint of 8-day-old ICR mouse (Charles River, Japan) and cultured in DMEM (Gibco, USA) containing 10% (v/v) fetal bovine serum (Gibco, USA), 50 μg/mL streptomycin (Sigma-Aldrich, USA) and 50 unit/mL penicillin (Sigma-Aldrich, USA). As a result, it was confirmed that whereas the expression of HIF-2α is increased by the proinflammatory cytokines, it is not affected by the anti-inflammatory cytokines IL-4 (R&D Systems, USA), IL-10 (R&D Systems, USA) and […] (R&D Systems, USA) (FIGS. 2a and 2b). IL-1β activates various signal transduction pathways in chondrocytes. Activation of NF-κβ and degradation of IκB protein were confirmed by western blot, and phosphorylation of extracellular signal-regulated kinase (ERK), c-Jun N-terminal kinase (JNK) and p38 MAP kinase from among mitogen-activated protein (MAP) kinase subtypes was confirmed by western blot (FIG. 2c). […] Accordingly, it was confirmed through RT-PCR and western blot (FIG. 2d) and quantification of HIF-2α transcripts by real-time RT-PCR (qRT-PCR) that NFkB and JNK regulate the expression of HIF-2α (FIG. 2e). It was confirmed through immunohistochemical staining that IκB and phosphorylated JNK (pJNK) activating NF-κβ are activated in larger amounts in human degenerative articular cartilage tissue (OA; osteoarthritis) as compared to normal cartilage (Normal).

Data set [1] concerns nitric oxide (NO) and prostaglandin E2 (PGE2). The experiment in a line: Production of nitric oxide (NO) and prostaglandin E2 (PGE2) in articular chondrocytes. Format: cell-based. Conditions: mouse knee joint chondrocytes. An excerpt:
(§1) Also, it was confirmed by qRT-PCR that the expression level of these transcripts is increased by Ad-HIF-2α and decreased by siRNA (FIG. 4a). The experimental procedure was the same as with MMP and ADAMT as described above. NOS2 and PTGS2 regulate cartilage degeneration by inducing production of nitric oxide (NO) and prostaglandin E2 (PGE2), respectively. The level of these metabolites was increased by Ad-HIF-2α and decreased by siRNA, as the expression level of PTGS2 and NOS2 transcripts (FIG. 4b).

Data set [2] has as its system cartilage degeneration-inducing factors MMP (1, 3, 9, 12, 13), ADAMTS4, PTGS2, NOS2. The experiment in a line: Expression of cartilage degeneration-inducing factors in chondrocytes after HIF-2α siRNA (RT-PCR, western blot, qRT-PCR). Format: cell-based, mouse. Conditions: for expression of the cartilage degeneration-inducing factors MMP (1, 3, 9, 12, 13), ADAMTS4, PTGS2, NOS2: siRNA 25, 50, 100 nM for 7 hours, then IL-1β medium 1.5 days, vs C-siRNA 100 nM. The procedure: Also, the expression of the cartilage degeneration-inducing factors was investigated after artificially inhibiting expression of HIF-2α using an siRNA specific for HIF-2α. More specifically, mouse knee joint chondrocytes were kept in a culture medium for 72 hours. After infecting with control (C-siRNA, 100 nM) or HIF-2α siRNA (25, 50, 100 nM) for 7 hours, the cells were cultured in a medium containing IL-1B for 1.5 days. The cells were recovered and cartilage degeneration-inducing factors were identified by RT-PCR and western blot. GAPDH and lamin B were used as loading control. Also, mRNA (FIG. 3a) and protein (FIG. 3b) levels of HIF-2α, MMP, ADAMTS, PTGS2 and NOS2 were measured by RT-PCR and western blot and their expression level was quantitated by qRT-PCR (FIGS. 3c and 3d). GAPDH and lamin B were used as loading control. Primers used in PCR are described in Table 1. As a result, it was confirmed that the expression of the cartilage degeneration-inducing factors MMP (1, 3, 9, 12, 13), ADAMTS4, PTGs2, NOS2, etc. is decreased as the expression of HIF-2α is inhibited.
as §1
For orientation: In western blotting, separated proteins are transferred to a membrane and probed.

The subject of the next data set is MAP kinase. Kind of data set: MAP kinase phosphorylation in cytokine-treated chondrocytes. The format is cell-based. Conditions: cytokine-treated mouse knee articular chondrocytes, HIF-2α-siRNA. From the text:
According to a preferred embodiment, the siRNA of the present invention has nucleotide sequence included the nucleotide sequence as set forth in SEQ ID NO:1.

As for `CC(C)(C)c1ccc(S(=O)(=O)/C=C/C#N)cc1` [BAY 11-7085, reference compound], in the data set with HIF-2α, the “expression of HIF-2α transcripts and proteins” value is “decreased remarkably”.
On to `COc1cccc(-c2cc(=O)c3ccccc3o2)c1N` [PD98059, reference compound], for which the “expression of HIF-2α transcripts and proteins” value in the data set on HIF-2α is “inhibition effect was slightly weak”.
Consider `C[S+]([O-])c1ccc(-c2nc(-c3ccncc3)c(-c3ccc(F)cc3)[nH]2)cc1` (stereo not shown) [SB203580, reference compound], for which the “expression of HIF-2α transcripts and proteins” value with HIF-2α was “no effect”.
Regarding “HIF-2α siRNA: siRNA specific for HIF-2α; mouse sense 5′-AGUUGUUGUAGACUUUCACCUGGC-3′, antisense 5′-GGCCAGGUGAAAGUCUACAACAAC-3′ (SEQ ID NO 4, 5) (listed as RNA, chemistry not given here)”, the “level of metabolites nitric oxide (NO) and prostaglandin E2 (PGE2)” value in data set [1] is “decreased”. In addition, the “expression level of PTGS2 and NOS2 transcripts (qRT-PCR)” value in data set [2] (mouse knee joint chondrocytes, siRNA) is “decreased”. Also, the “expression of the cartilage degeneration-inducing factors MMP (1, 3, 9, 12, 13), ADAMTS4, PTGS2, NOS2” value is reported as “decreased” in data set [2] and “markedly decreased” in data set [2] (listed as HIF-2α-siRNA). The MAP kinase phosphorylation entry with MAP kinase was “significantly reduced”.
Regarding “IL-17: proinflammatory cytokine (R&D Systems, USA)”, in the data set on HIF-2α, the “expression of HIF-2α” value was “increased”.
Same read-out and setting: for “IL-18: proinflammatory cytokine named in the legend of FIG. 2” the value was “increased”.
Take “IL-21: proinflammatory cytokine (R&D Systems, USA)”: the “expression of HIF-2α” value in the data set on HIF-2α was “increased”.
Regarding TNF-α, the “expression of HIF-2α” value in the data set with HIF-2α was “increased”.
Turning to interleukin 1β [IL-1β], the “expression of HIF-2α” value with HIF-2α was “increased”.

B1: IL-12: anti-inflammatory cytokine (R&D Systems, USA) (protein, UniProt P29459 23-219; P29460 23-328, looked up)
Interleukin-12 subunit alpha: RNLPVATPDPGMFPCLHHSQNLLRAVSNMLQKARQTLEFYPCTSEEIDHEDITKDKTSTVEACLPLELTKNESCLNSRETSFITNGSCLASRKTSFMMALCLSSIYEDLKMYQVEFKTMNAKLLMDPKRQIFLDQNMLAVIDELMQALNFNSETVPQKSSLEEPDFYKTKIKLCILLHAFRIRAVTIDRVMSYLNAS
Interleukin-12 subunit beta: IWELKKDVYVVELDWYPDAPGEMVVLTCDTPEEDGITWTLDQSSEVLGSGKTLTIQVKEFGDAGQYTCHKGGEVLSHSLLLLHKKEDGIWSTDILKDQKEPKNKTFLRCEAKNYSGRFTCWWLTTISTDLTFSVKSSRGSSDPQGVTCGAATLSAERVRGDNKEYEYSVECQEDSACPAAEESLPIEVMVDAVHKLKYENYTSSFFIRDIIKPDPPKNLQLKPLKNSRQVEVSWEYPDTWSTPHSYFSLTFCVQVQGKSKREKKDRVFTDKTSATVICRKNASISVRAQDRYYSSSWSEWASVPCS
In the case of B1, in the data set on HIF-2α, the “expression of HIF-2α” value is “not affected”.

B2: IL-4: anti-inflammatory cytokine (R&D Systems, USA) (protein, UniProt P05112 25-153, looked up)
Interleukin-4: HKCDITLQEIIKTLNSLTEQKTLCTELTVTDIFAASKNTTEKETFCRAATVLRQFYSHHEKDTRCLGATAQQFHRHKQLIRFLKRLDRNLWGLAGLNSCPVKEANQSTLENFLERLKTIMREKYSKCSS
Turning to B2, in the data set with HIF-2α, the “expression of HIF-2α” value was “not affected”.

B3: IL-10: anti-inflammatory cytokine (R&D Systems, USA) (protein, UniProt P22301 19-178, looked up)
Interleukin-10: SPGQGTQSENSCTHFPGNLPNMLRDLRDAFSRVKTFFQMKDQLDNLLLKESLLEDFKGYLGCQALSEMIQFYLEEVMPQAENQDPDIKAHVNSLGENLKTLRLRLRRCHRFLPCENKSKAVEQVKNAFNKLQEKGIYKAMSEFDIFINYIEAYMTMKIRN
Consider B3, for which, in the data set on HIF-2α, the “expression of HIF-2α” value was “not affected”.

The values above are taken from patent US8741868B2, “Pharmaceutical composition including an HIF-2 alpha inhibitor as an active ingredient for preventing or treating arthritis” (Gwangju Institute of Science and Technology, priority 2010, dated 2014).
